For experiment [1], the system named is wounds of non-diabetic Nrf2+/+ mice. In words: Wound closure in non-diabetic mice. The experiment is classed as in vivo, mouse. Conditions: non-diabetic Nrf2+/+ mice treated with SF or CA vs corn oil; up to 14 days. An excerpt:
Diabetes mouse model and treatments. Nrf2^+/+ and Nrf2^-/- C57BL/6 mice were described previously (see, e.g., Jiang T, et al., Diabetes 59:850-860, 2010) and were housed and handled in accordance with the University of Arizona Institutional Animal Care policies. The STZ-induced diabetic model was previously described (see, e.g., Zheng H, et al., Diabetes 60:3055-3066, 2011) and only 8 week old male mice were included in this study. Briefly, three weeks after STZ injections, fasting glucose levels (FGL, 4 h fast) were measured using the AlphaTRAK system (Abbott Laboratory, North Chicago, Ill.) and mice with a FGL higher than or equal to 250 mg/dL were considered diabetic and included in the study (see, e.g., FIG. 2A and FIG. 3A for a detailed timeline). The mice (n=5-8) were then allocated randomly to each of the indicated treatment groups and received corn oil (control), 12.5 mg/kg SF or 50 mg/kg CA intraperitoneally every two days until skin tissues were harvested. One week after the treatments, the mice were anesthetized, their backs were shaved and cleaned. Two wounds were made with a sterile 6 mm skin biopsy punch (Health link, Jacksonville, Fla.) and covered with 3M Tegaderm pads. […] Gross wound closure was quantified by ImageJ software, and wound healing was expressed as the percentage of the original wound area that had healed. […]

The subject of another experiment is HaCaT cells. In words: ROS measurement (DCF/flow cytometry) in HaCaT cells. The experiment is classed as cell-based, human. Particulars: HG HaCaT cells; 5 μmol/L SF or 20 μmol/L CA every 24 h, 48 h. As to the method: Human immortalized keratinocytes HaCaT were obtained from the Arizona Cancer Center (see, […], et al., J Cell Biol 106:761-771, 1988). Cells were grown in Dulbecco's modified Eagle's medium (DMEM) containing low glucose (LG, 5.5 mmol/L) and 10% fetal bovine serum (FBS) in an incubator at 37° C. with 5% CO2. For the experiments, the cells were starved in serum-free LG DMEM for 24 h, then either maintained in LG DMEM or switched to high glucose (HG, 25 mmol/L) DMEM for 2 days (see, e.g., Zheng H, et al., Diabetes 60:3055-3066, 2011; Lan C C, et al., Br J Dermatol 159:1103-1115, 2008). For the treatments, the cells were dosed with 5 μmol/L SF or 20 μmol/L CA. siRNA transfections. […] ROS were measured in HaCaT cells using DCF. […] Then, 48 h later, the cells were switched into fresh medium containing 10 μg/mL DCF, incubated 30 min, and fluorescence intensity was measured by flow cytometry. The rate of cell proliferation was measured by two methods (see, […], et al., Proc Natl Acad Sci USA 108:1433-1438, 2011): 1) detection of Ki67 using indirect immunofluorescence as described previously (see, e.g., Lau A, et al., Mol Cell Biol 30:3275-3285, 2010); and 2) using the xCELLigence system (Roche). For this, 8000 HaCaT cells/well were seeded in LG or HG media, with or without an NRF2 activator, and cell growth was monitored for 72 h. […]
In general terms: In flow cytometry, cells or beads pass a laser one at a time.

“Also recorded” adds a separate entry of the source.

With `O=CC=Cc1ccccc1` [CA, Cinnamaldehyde], in experiment [1], the wound closure result is listed as “No statistically significant differences; also recorded: do not show accelerated wound closure”. Besides, the ROS levels entry with HaCaT cells is recorded as “reduced ROS levels significantly”.
Taken in the same sequence, the figures for `C[S@@+]([O-])CCCCN=C=S` [SF, L-sulforaphane] were “No statistically significant differences; also recorded: do not show accelerated wound closure” and “reduced ROS levels significantly”.
